The assay has as its target recombinant human CETP protein (Homo sapiens (Human), UniProt P11597). The assay is described as follows: Test of CETP inhibition activity (in vitro, buffer-based). In kind it is biochemical. To be noted: reconstituted HDL with [14C]-labeled cholesteryl ester, acceptor lipoprotein, 37° C. The procedure:
Test of CETP Inhibition Activity (In Vitro, Buffer-Based)
(1) Preparation of Reconstituted HDL
Cholesterol (1.125 μmol), phosphatidyl choline (4.5 μmol) and [^14C]-labeled cholesteryl ester (2.0 μCi; 40 μl) were taken in a glass test tube and well mixed with a vortex, and dried under a nitrogen gas current so that it formed a thin film. The obtained mixture was dissolved in ethanol (200 μl), which was designated as Solution A. A PBS solution [a mixed solution of Na2HPO4 (30 mM), KH2PO4 (8.8 mM), NaCl (60 mM) and EDTA (pH 7.4; 0.67 mM); 4 ml] was taken in a tube and the reaction solution was vigorously stirred with a vortex under a nitrogen current. The above-described Solution A was gently injected into this mixture with a syringe and the reaction solution was vigorously stirred with a vortex for 5 minutes under a nitrogen current. Sodium cholate ([…]; 0.38 ml) was added to the obtained mixture and the reaction solution was stirred for 2 minutes. ApoA-I protein (3 mg) was added to the obtained mixture and the reaction solution was stirred for 2 minutes. The obtained mixture was adjusted to 5 ml with the PBS solution and then dialyzed with the PBS solution. The obtained mixture was designated as the reconstituted HDL.
(2) Preparation of Acceptor Lipoprotein
NaBr was added to the plasma of a healthy person and the density of the mixture was adjusted to 1.019, and the mixture was subjected to density gradient centrifugation (40000 rpm, for 16 hours) to remove the fraction having a density of less than 1.019. NaBr was added to the obtained mixture and the density of the solution was adjusted to 1.063, and the solution was subjected to density gradient centrifugation (40000 rpm, 18 hours) to provide the fraction consisting of IDL (intermediate density lipoprotein) and LDL (1.019<density<1.063). The obtained fraction was dialyzed with the PBS solution. The obtained mixture was designated as the acceptor lipoprotein.
(3) Measurement of CETP Inhibition Activity
A recombinant human CETP protein (manufactured by Roar Biomedical Inc.; 4.5 ng), the acceptor lipoprotein described in (2) above (32.5 μg) and 5,5′-dithio-bis-(2-nitrobenzoic acid) (7 mM, 15 μl) were taken in a 96 well plate and the total amount of the mixture was adjusted to 48.5 μl with the PBS solution. The test compound [DMSO solution (concentration: 0.15, 0.5, 1.5, 5, 15, 50, 150 and 500 μM; 1.5 μl] was added to each well and the mixture was incubated in a thermostatic bath at 37° C. for 60 minutes. The reconstituted HDL (50 μl) described in (1) above was added to each well and the mixture was reacted in a thermostatic bath at 37° C. for 60 minutes. The 96 well plate was moved onto ice and a precipitation reagent [a mixed solution of magnesium chloride (60 mM) and 0.1% dextran sulfate [1/1 (v/v)]; 15 μl] was added to each well, and then the mixture was allowed to stand on ice for 15 minutes. The reaction solution (80 μl) in each well was moved to a filter plate and centrifuged at 1500 rpm for 1 minute, and the filtrate which passed through the filter was designated as the HDL fraction and the radioactivity thereof was measured with a scintillation counter. The percentage decrease in radioactivity in the case where the test compound was added in comparison with that in case where the test compound was not added was designated as the percentage CETP inhibition. The IC50 value was calculated from the percentage CETP inhibition.
recombinant human CETP protein, sequence (P11597 18-493): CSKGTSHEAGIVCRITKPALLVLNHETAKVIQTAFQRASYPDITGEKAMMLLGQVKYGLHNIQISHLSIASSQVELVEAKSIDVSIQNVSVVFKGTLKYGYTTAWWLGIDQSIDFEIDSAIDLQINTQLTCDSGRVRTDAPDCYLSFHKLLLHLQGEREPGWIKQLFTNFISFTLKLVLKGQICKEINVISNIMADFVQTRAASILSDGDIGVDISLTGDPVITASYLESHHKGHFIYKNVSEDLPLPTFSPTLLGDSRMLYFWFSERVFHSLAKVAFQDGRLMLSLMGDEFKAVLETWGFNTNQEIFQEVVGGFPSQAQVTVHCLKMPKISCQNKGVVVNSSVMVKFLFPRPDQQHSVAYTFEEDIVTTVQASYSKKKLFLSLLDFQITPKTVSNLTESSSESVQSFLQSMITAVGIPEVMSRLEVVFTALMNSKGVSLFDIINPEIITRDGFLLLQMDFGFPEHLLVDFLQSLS
The term IC50 denotes the point on the concentration scale where inhibition reaches its midpoint. `Cc1noc(-c2cnc(N3CCC(c4nc5c(c(C6CCC(F)(F)CC6)c4[C@@H](F)c4ccc(C(F)(F)F)cc4)[C@@H](O)CC(C)(C)C5)CC3)nc2)n1` (single isomer, unassigned) [Example 35, 4-(4,4-Difluorocyclohexyl)-3-{fluoro[4-(trifluoromethyl)phenyl]methyl}-7,7-dimethyl-2-{1-[5-(3-methyl-1,2,4-oxadiazol-5-yl)pyrimidin-2-yl]piperidin-4-yl}-5,6,7,8-tetrahydroquinolin-5-ol]: the half-maximal inhibitory concentration (IC50) was determined as 88 nM. Turning to `CN(CCO)Cc1cnc(N2CCC(c3nc4c(c(C5CCC(F)(F)CC5)c3[C@@H](F)c3ccc(C(F)(F)F)cc3)[C@@H](O)CC(C)(C)C4)CC2)nc1` (single isomer, unassigned) [Example 36, (−)-4-(4,4-difluorocyclohexyl)-3-{fluoro[4-(trifluoromethyl)phenyl]methyl}-2-{1-(5-{[(2-hydroxyethyl)(methyl)amino]methyl}pyrimidine-2-yl)piperidin-4-yl}-7,7-dimethyl-5,6,7,8-tetrahydroquinoline-5-ol], the 50% inhibitory concentration (IC50) is 35 nM. The value for `CN1CCC(Oc2cnc(N3CCC(c4nc5c(c(C6CCC(F)(F)CC6)c4[C@@H](F)c4ccc(C(F)(F)F)cc4)[C@@H](O)CC(C)(C)C5)CC3)nc2)CC1` (single isomer, unassigned) [Example 38, 4-(4,4-Difluorocyclohexyl)-3-{fluoro[4-(trifluoromethyl)phenyl]methyl}-7,7-dimethyl-2-(1-{5-[(1-methylpiperidin-4-yl)oxy]pyrimidin-2-yl}piperidin-4-yl)-5,6,7,8-tetrahydroquinolin-5-ol] was 10 nM; that for `CC1(C)Cc2nc(C3CCN(c4ncc(OC[C@H](O)CO)cn4)CC3)c([C@@H](F)c3ccc(C(F)(F)F)cc3)c(C3CCC(F)(F)CC3)c2[C@@H](O)C1` (single isomer, unassigned) [Example 40] was 11 nM. As for `CN1CC[C@@H](Oc2cnc(N3CCC(c4nc5c(c(C6CCC(F)(F)CC6)c4C(F)c4ccc(C(F)(F)F)cc4)C(O)CC(C)(C)C5)CC3)nc2)C1` (single isomer, unassigned) [Example 41], the IC50 is 16 nM.

Take `C[C@@H](O)COc1cnc(N2CCC(c3nc4c(c(C5CCC(F)(F)CC5)c3[C@@H](F)c3ccc(C(F)(F)F)cc3)[C@@H](O)CC(C)(C)C4)CC2)nc1` (single isomer, unassigned) [Example 42]: the IC50 was found to be 22 nM. Take `CC(C)(O)CCOc1cnc(N2CCC(c3nc4c(c(C5CCC(F)(F)CC5)c3[C@@H](F)c3ccc(C(F)(F)F)cc3)[C@@H](O)CC(C)(C)C4)CC2)nc1` (single isomer, unassigned) [Example 43, (−)-4-(4,4-Difluorocyclohexyl)-3-{fluoro[4-(trifluoromethyl)phenyl]methyl}-2-{1-[5-(3-hydroxy-3-methylbutoxy)pyrimidin-2-yl]piperidin-4-yl}-7,7-dimethyl-5,6,7,8-tetrahydroquinolin-5-ol]: the IC50 was 9 nM. The value for `CC1(C)Cc2nc(C3CCN(c4ncc(OCCCS(C)(=O)=O)cn4)CC3)c([C@@H](F)c3ccc(C(F)(F)F)cc3)c(C3CCC(F)(F)CC3)c2[C@@H](O)C1` (single isomer, unassigned) [Example 45, (−)-4-(4,4-Difluorocyclohexyl)-3-{fluoro[4-(trifluoromethyl)phenyl]methyl}-7,7-dimethyl-2-(1-{5-[3-(methylsulphonyl)propoxy]pyrimidin-2-yl}piperidin-4-yl)-5,6,7,8-tetrahydroquinolin-5-ol] was 13 nM; that for `CC1(C)Cc2nc(C3CCN(c4ncc(OCCC(F)(F)F)cn4)CC3)c([C@@H](F)c3ccc(C(F)(F)F)cc3)c(C3CCC(F)(F)CC3)c2[C@@H](O)C1` (single isomer, unassigned) [Example 47, (−)-4-(4,4-Difluorocyclohexyl)-3-{fluoro[4-(trifluoromethyl)phenyl]methyl}-7,7-dimethyl-2-{1-[5-(3,3,3-trifluoropropoxyl)pyrimidin-2-yl]piperidin-4-yl}-5,6,7,8-tetrahydroquinolin-5-ol] was 31 nM; that for `CC1(C)Cc2nc(C3CCN(c4ncc(OC(F)F)cn4)CC3)c([C@@H](F)c3ccc(C(F)(F)F)cc3)c(C3CCC(F)(F)CC3)c2[C@@H](O)C1` (single isomer, unassigned) [Example 48, (−)-4-(4,4-Difluorocyclohexyl)-2-{1-[5-(difluoromethoxy)pyrimidin-2-yl]piperidin-4-yl}-3-{fluoro[4-(trifluoromethyl)phenyl]methyl}-7,7-dimethyl-5,6,7,8-tetrahydroquinolin-5-ol] was 42 nM.

Take `CC1(C)Cc2nc(C3CCN(c4ncc(OCC(CO)CO)cn4)CC3)c([C@@H](F)c3ccc(C(F)(F)F)cc3)c(C3CCC(F)(F)CC3)c2[C@@H](O)C1` (single isomer, unassigned) [Example 49, (−)-4-(4,4-Difluorocyclohexyl)-3-{fluoro[4-(trifluoromethyl)phenyl]methyl}-2-(1-{5-[3-hydroxy-2-(hydroxymethyl)propoxy]pyrimidin-2-yl}piperidin-4-yl)-7,7-dimethyl-5,6,7,8-tetrahydroquinolin-5-ol]: the concentration for half-maximal inhibition (IC50) worked out at 8 nM.

Consider `CC1(C)Cc2nc(C3CCN(c4ncc(OCC(C)(CO)CO)cn4)CC3)c([C@@H](F)c3ccc(C(F)(F)F)cc3)c(C3CCC(F)(F)CC3)c2[C@@H](O)C1` (single isomer, unassigned) [Example 50, (−)-4-(4,4-Difluorocyclohexyl)-3-{fluoro[4-(trifluoromethyl)phenyl]methyl}-2-(1-{5-[3-hydroxy-2-(hydroxymethyl)-2-methylpropoxy]pyrimidin-2-yl}piperidin-4-yl)-7,7-dimethyl-5,6,7,8-tetrahydroquinolin-5-ol], for which the IC50 was found to be 13 nM.

Take `CN(Cc1cnc(N2CCC(c3nc4c(c(C5CCC(F)(F)CC5)c3[C@@H](F)c3ccc(C(F)(F)F)cc3)[C@@H](O)CC(C)(C)C4)CC2)nc1)S(C)(=O)=O` (single isomer, unassigned) [Example 51, (−)-4-(4,4-Difluorocyclohexyl)-3-{fluoro[4-(trifluoromethyl)phenyl]methyl}-7,7-dimethyl-2-[1-(5-{[methyl(methylsulphonyl)amino]methyl}pyrimidin-2-yl)piperidin-4-yl]-5,6,7,8-tetrahydroquinolin-5-ol]: the IC50 is 6 nM.

Regarding `CC(C)S(=O)(=O)N(C)Cc1cnc(N2CCC(c3nc4c(c(C5CCC(F)(F)CC5)c3[C@@H](F)c3ccc(C(F)(F)F)cc3)[C@@H](O)CC(C)(C)C4)CC2)nc1` (single isomer, unassigned) [Example 52, 4-(4,4-Difluorocyclohexyl)-3-{fluoro[4-(trifluoromethyl)phenyl]methyl}-7,7-dimethyl-2-[1-(5-{[methyl(propan-2-ylsulfonyl)amino]methyl}pyrimidin-2-yl)piperidin-4-yl]-5,6,7,8-tetrahydroquinolin-5-ol], the IC50 was found to be 6 nM. In the case of `CSc1cnc(N2CCC(c3nc4c(c(C5CCC(F)(F)CC5)c3[C@@H](F)c3ccc(C(F)(F)F)cc3)[C@@H](O)CC(C)(C)C4)CC2)nc1` (single isomer, unassigned) [Example 53, (−)-4-(4,4-Difluorocyclohexyl)-3-{fluoro[4-(trifluoromethyl)phenyl]methyl}-7,7-dimethyl-2-[1-(5-methylthiopyrimidin-2-yl)-piperidin-4-yl]-5,6,7,8-tetrahydroquinolin-5-ol], the IC50 came out at 34 nM. For `CC1(C)Cc2nc(C3CCN(c4ncc(S(C)(=O)=O)cn4)CC3)c([C@@H](F)c3ccc(C(F)(F)F)cc3)c(C3CCC(F)(F)CC3)c2[C@@H](O)C1` (single isomer, unassigned) [Example 54, (−)-4-(4,4-Difluorocyclohexyl)-3-{fluoro[4-(trifluoromethyl)phenyl]methyl}-7,7-dimethyl-2-{1-[5-(methylsulphonyl)pyrimidin-2-yl]piperidin-4-yl}-5,6,7,8-tetrahydroquinolin-5-ol] the value was 32 nM.

For the origin of these results see patent US9187450B2, “Substituted pyridine compound” (Daiichi Sankyo Company, Limited, priority 2010, dated 2015).
